Experimental data: US20210283110A1, “COMPOUND FOR USE IN THE TREATMENT OF A DISEASE CHARACTERIZED BY DYSREGULATED MUCUS PRODUCTION AND/OR SECRETION” (UNIVERSITÄT REGENSBURG, priority 2018, published 2021)
“Also recorded” adds a separate entry of the source.

Tests used:
[1] = test system: airway epithelial specific TMEM16A knockout mice; test: Airway mucus in airway epithelial specific TMEM16A knockout mice; assay type: in vivo, mouse; settings: 1 mg/kg intraperitoneally for 5 days
Procedure: In another set of experiments, airway epithelial specific TMEM16A knockout mice were treated with benzbromarone. Airway epithelial specific TMEM16A knockout mice accumulate mucus in club cells, likely due to a secretory defect (FIG. 20A). Benzbromarone […], intraperitoneally) was applied for 5 days to mice with an airway epithelial specific knockout of TMEM16A. […] Thus benzbromarone is beneficial in the treatment of CF by reducing airway mucus plugging and therefore improving lung function.

[2] = test system: TMEM16A-expressing HEK293 cells; test: FM4-64 fluorescence (exocytosis) in TMEM16A-expressing HEK293 cells; assay type: cell-based; settings: 10 μM
Procedure: FIG. 8: TMEM16A controls exocytosis. • A) Whole cell current/voltage relationships obtained in mock transfected and TMEM16A (T16A) expressing HEK293 cells. Stimulation with the Ca^2+ ionophore ionomycin (Iono; 1 μM) activated whole cell currents in TMEM16A-expressing cells (n=12). • B) Increase of FM4-64 fluorescence upon stimulation with ionomycin in mock-transfected and TMEM16A-expressing cells, and inhibition by CaCCinhAO1 (AO1; 10 μM) (n=30). • C) Effect of ATP, or • D) CCH (both 100 μM) on FM4-64 fluorescence in cells expressing P2Y2 or M3 receptors (n=30). Mean±SEM. *significant increase by Iono (paired t-test). #significant difference when compared to mock (unpaired t-test).

[3] = test system: airways of OVA-sensitized mice; test: OVA-induced allergic airway inflammation in mice (alcian blue mucus staining, airway cross section, CD45 infiltration); assay type: in vivo, mouse; settings: for OVA-induced mucus production: wt mice, tracheal instillation, niflumic acid 20 μM or niclosamide 5 μM
Procedure: Intestinal sections were collected for histological analyses. Mouse airways were fixed by transcardial fixation and were embedded in paraffin or were used as cryosections. For paraffin sections, tissues were fixed in 4% paraformaldehyde (PFA), 0.2% picric acid and 3.4% sucrose in PBS, and were washed in methanol before embedding in paraffin. Sections were stained according to standard Periodic acid-Schiff (PAS) or Alcian Blue methods and assessed by light microscopy.
Mouse models were performed according to the previous example. For investigating mucus, IL-8 release, and leukocytes, tissues were fixed using 4% paraformaldehyde (PFA), 0.2% picric acid and 3.4% sucrose in PBS and washed in methanol before embedding in paraffin. Mucus was analyzed using standard Periodic acid-Schiff (PAS) or alcian blue staining. MUC5AC was stained using anti-MUC5AC mouse antibody (1:200, Abcam, ab3649) and a secondary antibody conjugated with Alexa488 (Life Technologies, A-21206). Nuclei were stained with Hoe33342 (0.1 μg/ml PBS, Aplichem, Darmstadt, Germany). Quantikine ELISA kits (R&D systems) were used to measure secretion of the cytokine IL-8 by Calu3 cells.
All methods were performed as described in the previous examples. Mice were treated with ovalbumin (OVA) to induce an allergic reaction which leads to airway inflammation. […] After allergization with OVA and development of airway inflammation, excessive mucus production and inflammatory infiltration with immune cells is observed. Activation of cholinergic receptors using the muscarinic agonist carbachol (CCH) results in constriction of the airways and secretion of mucus (FIG. 5A-C). 3-day treatment using niclosamide reduced the CCH-induced constriction of the airways (FIG. 1). Furthermore, mucus secretion and inflammatory infiltrates were reduced.
OVA-induced allergic airway inflammation in mice caused pronounced airway goblet cell metaplasia. […] NFA is a well know inhibitor of Ca^2+ activated Cl^− channels and inhibits TMEM16A. The two main TMEM16 paralogs expressed in airway epithelial and smooth muscle cells, TMEM16A and TMEM16F, were expressed in HEK293 cells and the whole cell currents upon activation by the Ca^2+ ionophore ionomycin (Iono) were measured. […] Novel therapeutic strategies for the treatment of inflammatory airway diseases such as CF may therefore consider the use of inhibitors of TMEM16.
The present inventors disclose that airway epithelial knockout of TMEM16A causes a defect in basal, i.e. ATP-mediated mucus secretion. […] Mucus synthesis under inflammatory (OVA) conditions and mucus release upon cholinergic stimulation, however, were not compromised (FIG. 16C). […] Because basal mucus production still occurs in the absence of TMEM16A, other TMEM16 paralogs may also be in charge of mucus synthesis.

TMEM16F = target: T1, TMEM16F (Homo sapiens, UniProt Q4KMQ2); test: Whole cell currents in HEK293 cells expressing TMEM16F (patch clamp); assay type: cell-based; settings: HEK293; 1 nM ionomycin; NFA
T1 construct: expressed in transfected cells; host or cells: HEK293 cells
T1 sequence (Q4KMQ2 1-910): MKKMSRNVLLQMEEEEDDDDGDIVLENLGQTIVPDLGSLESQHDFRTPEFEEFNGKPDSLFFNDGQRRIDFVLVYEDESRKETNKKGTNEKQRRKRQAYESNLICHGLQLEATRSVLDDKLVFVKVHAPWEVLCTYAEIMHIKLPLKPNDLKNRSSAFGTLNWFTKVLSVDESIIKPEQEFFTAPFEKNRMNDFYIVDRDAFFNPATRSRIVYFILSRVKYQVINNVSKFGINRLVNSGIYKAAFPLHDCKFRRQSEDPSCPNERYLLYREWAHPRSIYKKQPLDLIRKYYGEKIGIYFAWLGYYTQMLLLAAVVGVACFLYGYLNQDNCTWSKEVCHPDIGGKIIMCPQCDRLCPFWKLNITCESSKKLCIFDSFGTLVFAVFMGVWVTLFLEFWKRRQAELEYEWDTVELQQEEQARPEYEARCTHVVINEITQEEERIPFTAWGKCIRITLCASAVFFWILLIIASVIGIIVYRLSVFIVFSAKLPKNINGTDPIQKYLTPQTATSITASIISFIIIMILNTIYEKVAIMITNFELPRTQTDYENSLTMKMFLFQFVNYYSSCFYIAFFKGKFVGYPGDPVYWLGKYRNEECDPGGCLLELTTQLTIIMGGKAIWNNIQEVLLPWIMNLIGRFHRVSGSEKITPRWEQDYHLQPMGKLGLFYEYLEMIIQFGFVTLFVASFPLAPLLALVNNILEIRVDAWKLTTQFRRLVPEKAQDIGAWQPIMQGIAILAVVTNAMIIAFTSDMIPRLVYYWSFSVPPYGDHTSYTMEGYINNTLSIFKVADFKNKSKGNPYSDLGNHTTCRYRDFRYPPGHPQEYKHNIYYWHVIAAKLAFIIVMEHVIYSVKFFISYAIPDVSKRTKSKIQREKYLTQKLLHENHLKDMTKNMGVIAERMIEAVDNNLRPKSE
Procedure: (§1) FIG. 14: The TMEM16-inhibitor niflumic acid attenuates inflammatory airway disease. • A,B) OVA-sensitization induced pronounced goblet cell metaplasia as indicated by alcian blue positivity. Exposure to carbachol (CCH, 25 mg/ml, nebulizer) induced release of mucus and airway […]. Bars indicate […]. […] Mean±SEM; *significant inhibition by NFA (paired ttest). # significant difference when compared to OVA (unpaired t-test). (n) number of airways analysed or number of cells examined.
(§2) FIG. 15: Inhibition of TMEM16A and TMEM16F by niclosamide. • A) TMEM16A whole cell currents in overexpressing HEK293 cells. […]
(§3) OVA-induced allergic airway inflammation in mice caused pronounced airway goblet cell metaplasia. […] The two main TMEM16 paralogs expressed in airway epithelial and smooth muscle cells, TMEM16A and TMEM16F, were expressed in HEK293 cells and the whole cell currents upon activation by the Ca^2+ ionophore ionomycin (Iono) were measured. […]
(§4) Similar to TMEM16A, also overexpressed TMEM16F was inhibited by niclosamide (FIG. 15D). […] TMEM16A was activated by ionomycin and TMEM16A currents were measured as iodide quenching.

TMEM16A = target: T2, TMEM16A (Homo sapiens, UniProt Q5XXA6); test: Whole cell currents in HEK293 cells expressing TMEM16A (patch clamp); assay type: cell-based; set-up: expressed in transfected cells; host or cells: HEK293 cells; settings: HEK293; 1 nM ionomycin; NFA
T2 sequence (Q5XXA6 1-986): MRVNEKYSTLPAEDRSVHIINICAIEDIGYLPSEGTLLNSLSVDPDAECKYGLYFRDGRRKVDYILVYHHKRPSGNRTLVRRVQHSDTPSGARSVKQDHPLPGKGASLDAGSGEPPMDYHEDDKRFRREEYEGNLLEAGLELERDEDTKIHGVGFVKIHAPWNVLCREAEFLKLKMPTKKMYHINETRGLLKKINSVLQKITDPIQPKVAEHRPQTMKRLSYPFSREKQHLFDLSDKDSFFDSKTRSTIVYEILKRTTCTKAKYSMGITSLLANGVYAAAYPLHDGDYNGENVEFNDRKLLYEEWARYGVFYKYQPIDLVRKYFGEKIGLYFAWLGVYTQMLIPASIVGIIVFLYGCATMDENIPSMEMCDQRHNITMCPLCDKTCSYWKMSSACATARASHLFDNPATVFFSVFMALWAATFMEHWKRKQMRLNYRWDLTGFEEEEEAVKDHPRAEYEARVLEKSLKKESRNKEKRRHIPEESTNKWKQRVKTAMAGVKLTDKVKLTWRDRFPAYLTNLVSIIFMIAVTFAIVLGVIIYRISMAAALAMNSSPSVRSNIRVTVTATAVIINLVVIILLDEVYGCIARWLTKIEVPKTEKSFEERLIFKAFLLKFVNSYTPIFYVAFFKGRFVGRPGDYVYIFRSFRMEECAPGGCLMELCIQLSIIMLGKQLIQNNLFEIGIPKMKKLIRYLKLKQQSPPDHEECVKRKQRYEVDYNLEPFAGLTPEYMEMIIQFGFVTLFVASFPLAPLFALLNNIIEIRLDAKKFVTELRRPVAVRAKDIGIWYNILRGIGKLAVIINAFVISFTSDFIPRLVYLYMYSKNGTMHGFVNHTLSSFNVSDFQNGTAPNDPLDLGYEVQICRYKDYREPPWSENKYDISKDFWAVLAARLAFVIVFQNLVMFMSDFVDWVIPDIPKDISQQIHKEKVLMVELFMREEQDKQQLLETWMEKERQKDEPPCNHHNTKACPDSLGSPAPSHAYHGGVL
Procedure: as §1, §2, §3, §4

endogenous TMEM16A = test: Iodide quenching of YFP in HT29 cells stimulated with ionomycin; assay type: cell-based
Procedure: FIG. 15: Inhibition of TMEM16A and TMEM16F by niclosamide. • A) TMEM16A whole cell currents in overexpressing HEK293 cells. […] Rate of YFP quenching (arbitrary units (au/second), when applying 20 mM iodide to the extracellular bath solution. HT29 cells stably overexpressing YFP were stimulated with […] ionomycin. 100,000 cells were seeded/well. Mean±SEM; (number of experiments) #significant inhibition when compared to the absence of the inhibitor (p<0.05; unpaired t-test); *significant activation by UTP (paired t-test).
Similar to TMEM16A, also overexpressed TMEM16F was inhibited by niclosamide (FIG. 15D). The effect of niclosamide was also examined on endogenous TMEM16A expressed in HT29 colonic carcinoma cells, which were stably transfected with iodide-sensitive yellow fluorescent protein (YFP). TMEM16A was activated by ionomycin and TMEM16A currents were measured as iodide quenching.

[4] = OVA-sensitized mice, acute exposure to TMEM16A activator
[5] = OVA-sensitized mice, 20 mg/kg/day intratracheal for three days before CCH, 20 mg/kg/day

For `CCc1oc2ccccc2c1C(=O)c1cc(Br)c(O)c(Br)c1` [Benzbromarone, (3,5-dibromo-4-hydroxyphenyl) (2-ethyl-1-benzofuran-3-yl)methanone], the mucus production [1] was “largely reduced”.

In the case of `CC(C)(C)C1CCc2c(sc(NC(=O)c3ccco3)c2C(=O)O)C1` (stereo not drawn) [CaCCinhAO1], the “increase of FM4-64 fluorescence upon stimulation with ionomycin” value [2] is reported as “inhibition”.

In the case of `COCCN(C(=O)c1cc(OC)c(OC)c(OC)c1)c1nc(-c2ccccc2)cs1` [Eact], the airway contraction [3, 4] is reported as “airway contraction” and the mucus release [3, 4] is reported as “induces massive mucus release”.

For `O=C(O)c1cccnc1Nc1cccc(C(F)(F)F)c1` [NFA, niflumic acid], the “CCH-induced airway contraction (airway cross sections)” value [3, 5] was “completely blocked; also recorded: strongly attenuated”, the “mucus production / airway mucus” value [3, 5] was “abolished; also recorded: strongly attenuated” and the OVA-induced mucus production [3] was “strongly reduced”. For the same compound, the OVA-induced mucus production ([3]; listed as niflumic acid) was “inhibited mucus production”, the “TMEM16F whole cell current activated by ionomycin” value (TMEM16F) was “potently suppressed” and the “TMEM16A whole cell current activated by ionomycin” value (TMEM16A) was “potently suppressed”.

`O=C(Nc1ncc([N+](=O)[O-])s1)c1ccccc1O` [tizoxanide, 2-hydroxy-N-(5-nitro-1,3-thiazol-2-yl)benzamide] was tested, and the “potency compared with CaCCinhAO1 or dichlorophen” value (endogenous TMEM16A; HT29 YFP iodide quenching) was “more potent” and the “inhibition of endogenous TMEM16A (iodide quenching of YFP)” value (endogenous TMEM16A; HT29 cells stably expressing YFP, ionomycin, 20 mM iodide) was “low nanomolar range”.
